In patent publication EP0102404A1, “Novel polycyclic fused pyrazole compounds useful as antiinflammatory agents and preparation thereof” (STERLING DRUG INC., priority 1982, dated 1984):

Assays:
Type in all cases: in vivo
[1] = tested on: Male rats; experiment: Anti-inflammatory activity (a-tocopherol pouch test)
Experimental: Male rats which weighed 120 g were selected for testing. A rapid subcutaneous injection of 25 mL of air was made between the scapulae of each rat. […] The test compound was administered in daily oral doses for 7 days beginning on the day of pouch formation. The compound to be tested was suspended in 1% gum tragacanth. Twenty-four hours after the last medication, the pouches were dissected free, and the fluid volume was measured.

[2] = tested on: Mature male rats, bilaterally adrenalectomized; experiment: Glycogenic activity (liver glycogen deposition test); settings: for liver glycogen deposition: adrenalectomized male rats, vehicle 1.75 + 0.04 mg/g
Text: Glycogenic Activity: Mature male rats were bilaterally adrenalectomized 5 days prior to the test. These rats were medicated orally with the test compound for 5 days. Seven hours after the last medication, the rats (which have been fasted overnight) were anesthetized with sodium pentobarbital and a portion of one lobe of the liver was removed and frozen on dry ice for subsequent glycogen determination.

[3] = tested on: Mature female rats; experiment: Endocrine profile (thymus, adrenal, body weight, food consumption) after oral medication for 2 weeks; settings: compared with the controls
Experimental: The test procedures used to determine the biological activities of the compounds of the invention were carried out as follows: • Endocrine Profile: Mature female rats with an average body weight of 202 g and a body weight range of 15 g or less were medicated orally with test compound for 2 weeks. The test compound was prepared as a solution or suspension in 1% gum tragacanth or 0.75% methyl cellulose. On the day following the last medication, the rats were killed and the thymus and adrenal of each rat were removed, cleaned, and weighed. Body weights and food consumptions were also recorded.

Q: Which ED50 ([1]; Rattus norvegicus, 168 h, daily oral doses for 7 days, male rats, inhibition of liquid exudate) does the source give for `CC(=O)C1CC=C2C(CCC3=Cc4c(cnn4-c4ccc(F)cc4)CC32C)C1C(C)=O` (single isomer, unassigned) [Compound I (R = CH3), 1,1'-[8-(4-Fluorophenyl)-2,3,4,4a,5,6,11,11a-octahydro-11a-methyl-8H-phenanthro[2,3-c]pyrazole-3,4-diyl]bis[ethanone]] here?
A: 23 mg/kg

Q: And the “anti-inflammatory activity by the a-tocopherol pouch test” value ([1]; rats, result in words)?
A: anti-inflammatory activity

Q: And the liver glycogen deposition ([2]; 9 mg/kg/day x 5, oral)?
A: 9.42 + 0.65 mg/g of tissue

Q: What about the liver glycogen deposition ([2]; 27 mg/kg/day x 5, oral) of the same compound?
A: 25.48 + 3.39 mg/g of tissue

Q: And the “oral glucocorticoid activity by the liver glycogen deposition test” value ([2]; rats, oral, result in words)?
A: oral glucocorticoid activity

Q: What about the “reduction in adrenal weight” value ([3]; 5 mg/kg) of the same compound?
A: 40%

Q: And the “reduction in body weight gain” value ([3]; 5 mg/kg)?
A: 80%

Q: What about the “reduction in weight of the thymus” value ([3]; 5 mg/kg) of the same compound?
A: 59%

Q: With `CCOC(=O)C1(C(=O)OCC)CCC=C2C1CCC1=Cc3c(cnn3-c3ccc(F)cc3)CC12C` (stereo not drawn) [Compound II (R = CH2CH3), Diethyl 8-(4-fluorophenyl)-2,3,4,4a,5,6,11,11a-octahydro-11a-methyl-8H-phenanthro[2,3-c]pyrazole-4,4-dicarboxylate] as the compound, how does the “activity in the a-tocopherol pouch test” value ([1]; 100 mg/kg, daily oral doses for 7 days, male rats) read?
A: inactive

Q: What about the “reduction in adrenal weight” value ([3]; 100 mg/kg) of the same compound?
A: 47%

Q: And the “reduction in body weight gain” value ([3]; 100 mg/kg)?
A: 186%

Q: What about the “reduction in thymus weight” value ([3]; 100 mg/kg) of the same compound?
A: 80%
